Read-outs that look alike come from different tables or passages of the source.

Results on 2 compounds are retold here after paper PMC3048380, “Crystal Structure of an Integron Gene Cassette-Associated Protein from Vibrio cholerae Identifies a Cationic Drug-Binding Module” (PLoS ONE, 2011).

The target in one assay is Cass2 (Vibrio cholerae, UniProt D0VX23). As to conditions: tryptophan fluorescence quenching, 24°C, pH 7.5; read-out: Ligand binding affinity KD, Cass2 wt.
The next assay concerns the target (E134Q)Cass2 (Vibrio cholerae, UniProt D0VX23, E134Q). As to conditions: pH 7.5; read-out: Ligand binding affinity KD, Cass2 E134Q.
The target in assay [1] is BmrR. The note with it: equilibrium dialysis methods; read-out: Ligand binding affinity KD, BmrR wt; cited from earlier work. On the technique in general: Equilibrium dialysis compares concentrations on both sides of a semipermeable membrane.
Assay [2] concerns the target BmrR. As to conditions: isothermal titration calorimetry binding assays; read-out: Ligand binding affinity KD, BmrR wt; cited from earlier work. (In general: ITC needs no label: the signal is the heat of the interaction.)

On to benzalkonium chloride, for which the Kd amounted to 100 nM on Cass2 and 300 ± 60 nM on (E134Q)Cass2.

On to `c1ccc([P+](c2ccccc2)(c2ccccc2)c2ccccc2)cc1` [tetraphenylphosphonium (TPP), tetraphenylphosphonium chloride], for which the dissociation constant (Kd) was 200 ± 80 nM at Cass2, 100000 nM on BmrR [1], 200 ± 130 nM at (E134Q)Cass2 and 74000 ± 20500 nM at BmrR [2].

For orientation: Kd means the free concentration of one partner at which half of the binding sites on the other are occupied at equilibrium, for simple one-to-one binding.
